According to patent US20230000885A1, “Methods of Treating Psychological and Brain Disorders” (University of Maryland, Baltimore, priority 2019, published 2023):
pKi: −log10 of the molar value. Entries after “also recorded” stand apart in the source; their conditions may differ.

What was measured:
[1] = tested on: male C57BI/6J mice; test: sucrose preference test (SPT) after chronic multimodal stress (CMMS); type: in vivo; details: stress-susceptible CMMS mice; ketanserin 2 mg/kg alone (ketanserin-vehicle); vs values after CMMS
[2] = tested on: 5-HT2Rs; details: cited from earlier work
[3] = tested on: male C57BI/6J mice; test: female urine sniff test (FUST) after chronic multimodal stress; type: in vivo; details: stress-susceptible CMMS mice; ketanserin 2 mg/kg alone; vs values after CMMS
[4] = tested on: male C57BI/6J mice; test: locomotion (video, Any-maze) after injection; type: in vivo; details: ketanserin 2 mg/kg pretreatment, recorded 90 minutes after second injection, with or without psilocybin
[5] = biological target: 5-HT1BRs (Homo sapiens, UniProt P28222); details: cited from earlier work
Sequence of 5-HT1BRs (P28222 whole entry): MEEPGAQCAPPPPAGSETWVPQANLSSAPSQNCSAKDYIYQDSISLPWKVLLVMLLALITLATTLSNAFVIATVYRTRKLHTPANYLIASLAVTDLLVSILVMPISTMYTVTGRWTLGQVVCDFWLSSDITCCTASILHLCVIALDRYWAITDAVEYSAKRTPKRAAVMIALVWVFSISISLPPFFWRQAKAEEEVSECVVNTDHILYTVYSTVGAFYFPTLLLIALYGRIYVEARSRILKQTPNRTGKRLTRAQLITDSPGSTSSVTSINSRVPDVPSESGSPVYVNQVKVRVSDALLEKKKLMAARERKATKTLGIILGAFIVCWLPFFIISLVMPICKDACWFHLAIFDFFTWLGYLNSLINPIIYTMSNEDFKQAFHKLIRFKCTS

[6] = biological target: 5-HTRs; details: read-out: affinities at almost all 5-HTRs; cited from earlier work

Row | Compound | sucrose preference (SP) [1] | acute psilocybin-induced changes in processing of negative emotional stimuli ([2]; healthy subjects) | psilocybin-induced self-reported perceptual distortions ([2]; humans, ketanserin block of 5-HT2Rs) | preference for female urine [3] | time mobile / mobility [4] | total distance travelled [4] | time mobile / mobility ([4]; listed as Ketanserin) | affinity for 5-HT1BRs [5] | pKi [6]
1 | O=C(c1ccc(F)cc1)C1CCN(CCn2c(=O)[nH]c3ccccc3c2=O)CC1 [ketanserin, Ketanserin] | no significant effect on either behavior | prevented | significantly attenuates self-reported perceptual distortions; also recorded: attenuates psilocybin-induced perceptual alterations | nor ketanserin alone (p=0.072; n=4) had a significant effect; also recorded: no significant effect on either behavior | significant effect of ketanserin | main effect of ketanserin | significant increase in mobility |  | 
2 | CN(C)CCc1c[nH]c2cccc(O)c12 [Psilocin] |  |  |  |  |  |  |  | high affinity | 6.30 to 8.52
